From patent publication US9604961B2, “Histone demethylase inhibitors” (Celgene Quanticel Research, Inc., priority 2012, dated 2017)

Legend:
Format in all cases: biochemical
Jarid1B = Jarid1B (Homo sapiens (Human), UniProt Q9UGL1); experiment: Jarid1B in vitro enzyme inhibition assay (TR-FRET)
Jarid1A = Jarid1A (Homo sapiens (Human), UniProt P29375); experiment: Jarid1A in vitro enzyme inhibition assay (TR-FRET)
Source text: The enzymatic assay of Jarid1A activity is based upon Time Resolved-Fluorescence Resonance Energy Transfer (TR-FRET) detection.

JMJD2C = JMJD2C (Homo sapiens (Human), UniProt Q9H3R0); experiment: JMJD2C in vitro enzyme inhibition assay (TR-FRET)
JMJD2C, sequence (Q9H3R0 2-372): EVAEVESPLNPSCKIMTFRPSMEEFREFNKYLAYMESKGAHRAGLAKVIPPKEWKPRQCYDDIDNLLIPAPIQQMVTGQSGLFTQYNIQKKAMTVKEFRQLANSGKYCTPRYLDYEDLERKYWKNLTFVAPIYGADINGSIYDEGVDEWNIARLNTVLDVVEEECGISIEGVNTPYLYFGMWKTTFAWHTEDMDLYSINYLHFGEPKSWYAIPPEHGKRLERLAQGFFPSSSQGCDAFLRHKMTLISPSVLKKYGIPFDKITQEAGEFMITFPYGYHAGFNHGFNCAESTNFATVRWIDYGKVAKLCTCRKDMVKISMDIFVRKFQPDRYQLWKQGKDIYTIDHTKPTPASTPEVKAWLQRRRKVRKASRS
Description: Baculovirus expressed JMJD2C (GenBank Accession #BC143571, AA 2-372) was purchased from BPS Bioscience (Cat#50105).
The ability of test compounds to inhibit the activity of JMJD2C was determined in 384-well plate format under the following reaction conditions: 0.3 nM JMJD2C, 300 nM H3K9me3-biotin labeled peptide (Anaspec cat #64360), 2 μM alpha-ketoglutaric acid in assay buffer of 50 mM HEPES, pH7.3, 0.005% Brij35, 0.5 mM TCEP, 0.2 mg/ml BSA, 50 μM sodium L-ascorbate, and 2 μM ammonium iron(II) sulfate. Reaction product was determined quantitatively by TR-FRET after the addition of detection reagent Phycolink Streptavidin-allophycocyanin (Prozyme) and Europium-anti-di-methylated histone H3 lysine 9 (H3K9me2) antibody (PerkinElmer) in the presence of 5 mM EDTA in LANCE detection buffer (PerkinElmer) at a final concentration of 50 nM and 1 nM, respectively.
The assay reaction was initiated by the following: 2 μl of the mixture of 900 nM H3K9me3-biotin labeled peptide and 6 μM alpha-ketoglutaric acid with 2 μl of 11-point serial diluted inhibitor in 3% DMSO were added to each well of the plate, followed by the addition of 2 μl of 0.9 nM JMJD2C to initiate the reaction. The reaction mixture was incubated at room temperature for 30 minutes, and terminated by the addition of 6 μl of 5 mM EDTA in LANCE detection buffer containing 100 nM Phycolink Streptavidin-allophycocyanin and 2 nM Europium-anti-H3K9me2 antibody. Plates were read by EnVisionMultilabel Reader in TR-FRET mode (excitation at 320 nm, emission at 615 nm and 665 nm) after 1 hour incubation at room temperature. A ratio was calculated (665/615) for each well and fitted to determine inhibition constant (IC50).

Jarid1A, sequence (P29375 1-1090): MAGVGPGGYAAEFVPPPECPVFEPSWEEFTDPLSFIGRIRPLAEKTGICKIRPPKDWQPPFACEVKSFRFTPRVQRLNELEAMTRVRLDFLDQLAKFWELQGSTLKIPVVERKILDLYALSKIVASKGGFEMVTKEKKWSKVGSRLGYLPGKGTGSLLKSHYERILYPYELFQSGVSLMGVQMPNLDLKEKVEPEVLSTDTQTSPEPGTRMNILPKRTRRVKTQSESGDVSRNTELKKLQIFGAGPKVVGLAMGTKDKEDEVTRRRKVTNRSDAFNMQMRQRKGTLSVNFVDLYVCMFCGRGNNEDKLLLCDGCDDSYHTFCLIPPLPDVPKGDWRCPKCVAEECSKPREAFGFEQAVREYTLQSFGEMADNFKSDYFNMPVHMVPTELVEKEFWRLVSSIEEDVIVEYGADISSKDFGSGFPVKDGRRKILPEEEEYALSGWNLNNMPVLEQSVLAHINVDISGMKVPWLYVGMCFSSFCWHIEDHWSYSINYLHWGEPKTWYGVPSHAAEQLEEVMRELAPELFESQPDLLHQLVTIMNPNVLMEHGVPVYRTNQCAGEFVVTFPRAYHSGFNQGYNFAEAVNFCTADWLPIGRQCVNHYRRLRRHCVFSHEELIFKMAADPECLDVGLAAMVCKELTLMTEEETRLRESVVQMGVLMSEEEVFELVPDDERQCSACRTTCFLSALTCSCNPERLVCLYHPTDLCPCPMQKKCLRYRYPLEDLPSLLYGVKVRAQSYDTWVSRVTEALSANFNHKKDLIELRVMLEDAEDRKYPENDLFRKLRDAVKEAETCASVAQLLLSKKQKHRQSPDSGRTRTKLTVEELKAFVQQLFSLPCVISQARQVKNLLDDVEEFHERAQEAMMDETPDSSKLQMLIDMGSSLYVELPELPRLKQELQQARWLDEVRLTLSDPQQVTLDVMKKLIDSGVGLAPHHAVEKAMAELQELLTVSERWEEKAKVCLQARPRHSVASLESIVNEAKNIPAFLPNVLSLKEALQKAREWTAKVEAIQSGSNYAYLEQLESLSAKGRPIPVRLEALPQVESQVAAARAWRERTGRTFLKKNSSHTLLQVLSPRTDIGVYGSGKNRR
Jarid1B, sequence (Q9UGL1 2-751): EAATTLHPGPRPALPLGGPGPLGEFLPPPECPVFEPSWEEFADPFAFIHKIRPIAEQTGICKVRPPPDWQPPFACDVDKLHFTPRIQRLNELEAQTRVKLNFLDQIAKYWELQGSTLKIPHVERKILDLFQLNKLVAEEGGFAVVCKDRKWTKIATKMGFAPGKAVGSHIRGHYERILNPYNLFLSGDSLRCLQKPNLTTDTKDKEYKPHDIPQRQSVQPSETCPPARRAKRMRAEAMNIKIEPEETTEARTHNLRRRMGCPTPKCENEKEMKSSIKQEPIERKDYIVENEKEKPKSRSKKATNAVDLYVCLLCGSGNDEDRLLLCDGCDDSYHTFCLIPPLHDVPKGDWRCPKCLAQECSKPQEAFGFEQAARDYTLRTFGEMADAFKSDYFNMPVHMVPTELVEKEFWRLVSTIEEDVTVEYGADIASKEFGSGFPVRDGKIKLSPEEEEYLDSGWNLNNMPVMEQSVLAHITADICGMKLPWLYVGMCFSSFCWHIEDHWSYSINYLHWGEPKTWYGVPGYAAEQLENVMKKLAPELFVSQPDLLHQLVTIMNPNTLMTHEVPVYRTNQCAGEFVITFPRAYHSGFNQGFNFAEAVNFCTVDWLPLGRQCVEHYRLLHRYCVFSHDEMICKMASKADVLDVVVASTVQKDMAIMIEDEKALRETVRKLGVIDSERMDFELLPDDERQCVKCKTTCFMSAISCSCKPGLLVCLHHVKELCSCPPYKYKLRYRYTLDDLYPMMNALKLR

IC50 (Jarid1B) [µM]	IC50 (Jarid1A) [µM]	IC50 (JMJD2C) [µM]	Molecule
0.1 to 1	0.1 to 1	0.1 to 1	Cc1cccc(-c2ccnn2-c2cc(C(=O)O)ccn2)c1 [Example 13, 2-(5-m-tolyl-1H-pyrazol-1-yl)isonicotinic acid]
0.1 to 1	0.1 to 1	0.1 to 1	O=C(O)c1ccnc(-n2nccc2-c2ccc(F)c(F)c2)c1 [Example 15, 2-(5-(3,4-difluorophenyl)-1H-pyrazol-1-yl)isonicotinic acid]
0.1 to 1	0.1 to 1	0.1 to 1	O=C(O)c1ccnc(-n2nccc2-c2cccc(F)c2)c1 [Example 16, 2-(5-(3-fluorophenyl)-1H-pyrazol-1-yl)isonicotinic acid]
0.1 to 1	0.1 to 1	0.1 to 1	O=C(O)c1ccnc(-n2nccc2-c2ccc(O)cc2)c1 [Example 18, 2-(5-(4-hydroxyphenyl)-1H-pyrazol-1-yl)isonicotinic acid]
0.1 to 1	0.1 to 1	1 to 10	CS(=O)(=O)c1ccc(-c2ccnn2-c2cc(C(=O)O)ccn2)cc1 [Example 19, 2-(5-(4-(methylsulfonyl)phenyl)-1H-pyrazol-1-yl)isonicotinic acid]
0.1 to 1	0.1 to 1	1 to 10	COc1cc(-c2ccnn2-c2cc(C(=O)O)ccn2)ccc1C [Example 20, 2-(5-(3-methoxy-4-methylphenyl)-1H-pyrazol-1-yl)isonicotinic acid]
< 0.1	< 0.1	0.1 to 1	Cc1ccc(-c2ccnn2-c2cc(C(=O)O)ccn2)cc1O [Example 21, 2-(5-(3-hydroxy-4-methylphenyl)-1H-pyrazol-1-yl)isonicotinic acid]
0.1 to 1	0.1 to 1	1 to 10	COc1cc(-c2ccnn2-c2cc(C(=O)O)ccn2)ccc1Cl [Example 22, 2-(5-(4-chloro-3-methoxyphenyl)-1H-pyrazol-1-yl)isonicotinic acid]
0.1 to 1	0.1 to 1	1 to 10	O=C(O)c1ccnc(-n2nccc2-c2ccc(Cl)c(O)c2)c1 [Example 23, 2-(5-(4-chloro-3-hydroxyphenyl)-1H-pyrazol-1-yl)isonicotinic acid]
0.1 to 1	0.1 to 1	1 to 10	O=C(O)c1ccnc(-n2nccc2-c2ccc3cn[nH]c3c2)c1 [Example 24, 2-[5-(1H-indazol-6-yl)-1H-pyrazol-1-yl]pyridine-4-carboxylic acid]
1 to 10	1 to 10	1 to 10	O=C(O)c1ccnc(-n2nccc2-c2ccccc2)c1 [Example 26, 2-(5-phenyl-1H-pyrazol-1-yl)isonicotinic acid]
0.1 to 1	0.1 to 1	1 to 10	CS(=O)(=O)c1ccc(-c2ccnn2-c2cc(C(=O)O)ccn2)cc1O [Example 28, 2-(5-(3-hydroxy-4-(methylsulfonyl)phenyl)-1H-pyrazol-1-yl)isonicotinic acid]
1 to 10	1 to 10	1 to 10	Cc1ccc(-c2cc(C)nn2-c2cc(C(=O)O)ccn2)cc1 [Example 29, 2-(3-methyl-5-p-tolyl-1H-pyrazol-1-yl)isonicotinic acid]
0.1 to 1	1 to 10	1 to 10	CCc1cc(-c2ccc(C)cc2)n(-c2cc(C(=O)O)ccn2)n1 [Example 30, 2-(3-ethyl-5-p-tolyl-1H-pyrazol-1-yl)isonicotinic acid]
1 to 10	1 to 10	0.1 to 1	Cc1ccnn1-c1cc(C(=O)O)ccn1 [Example 31, 2-(5-methyl-1H-pyrazol-1-yl)isonicotinic acid]
1 to 10	1 to 10	> 10	O=C(O)c1ccnc(-n2nccc2CCc2ccccc2)c1 [Example 34, 2-(5-phenethyl-1H-pyrazol-1-yl)isonicotinic acid]
0.1 to 1	0.1 to 1	> 10	Cc1c(-c2ccccc2)cnn1-c1cc(C(=O)O)ccn1 [Example 36, 2-(5-methyl-4-phenyl-1H-pyrazol-1-yl)isonicotinic acid]
1 to 10	1 to 10	1 to 10	COc1cc(C)nn1-c1cc(C(=O)O)ccn1 [Example 37, 2-(5-methoxy-3-methyl-1H-pyrazol-1-yl)isonicotinic acid]
< 0.1	0.1 to 1	0.1 to 1	Cc1cc(OCc2ccccc2)n(-c2cc(C(=O)O)ccn2)n1 [Example 38, 2-(5-(benzyloxy)-3-methyl-1H-pyrazol-1-yl)isonicotinic acid]
< 0.1	< 0.1	< 0.1	O=C(O)c1ccnc(-n2nccc2OCc2cccc(F)c2)c1 [Example 41, 2-{5-[(3-fluorobenzyl)oxy]-1H-pyrazol-1-yl}pyridine-4-carboxylic acid]

IC50 (Jarid1B) [µM]	IC50 (Jarid1A) [µM]	IC50 (JMJD2C) [µM]	Molecule
< 0.1	< 0.1	< 0.1	COc1cccc(COc2ccnn2-c2cc(C(=O)O)ccn2)c1 [Example 42, 2-{5-[(3-methoxybenzyl)oxy]-1H-pyrazol-1-yl}pyridine-4-carboxylic acid]
< 0.1	< 0.1	0.1 to 1	COc1ccc(COc2ccnn2-c2cc(C(=O)O)ccn2)cc1 [Example 43, 2-{5-[(4-methoxybenzyl)oxy]-1H-pyrazol-1-yl}pyridine-4-carboxylic acid]
1 to 10	1 to 10	> 10	CCCCc1ccnn1-c1cc(C(=O)O)ccn1 [Example 44, 2-(5-butyl-1H-pyrazol-1-yl)pyridine-4-carboxylic acid]
0.1 to 1	0.1 to 1	0.1 to 1	CCCCc1ccn(-c2cc(C(=O)O)ccn2)n1 [Example 45, 2-(3-butyl-1H-pyrazol-1-yl)pyridine-4-carboxylic acid]
0.1 to 1	0.1 to 1	1 to 10	O=C(O)c1ccnc(-n2nccc2-c2ccc(Br)cc2)c1 [Example 46, 2-[5-(4-bromophenyl)-1H-pyrazol-1-yl]pyridine-4-carboxylic acid]
0.1 to 1	0.1 to 1	1 to 10	CN(C)c1ccc(-c2ccnn2-c2cc(C(=O)O)ccn2)cc1 [Example 47, 2-{5-[4-(dimethylamino)phenyl]-1H-pyrazol-1-yl}pyridine-4-carboxylic acid]
0.1 to 1	< 0.1	1 to 10	Cc1ccc(-c2cc(N)nn2-c2cc(C(=O)O)ccn2)cc1 [Example 48, 2-[3-amino-5-(4-methylphenyl)-1H-pyrazol-1-yl]pyridine-4-carboxylic acid]
< 0.1	< 0.1	0.1 to 1	O=C(O)c1ccnc(-n2nccc2OCc2ccc(F)c(F)c2)c1 [Example 52, 2-{5-[(3,4-difluorobenzyl)oxy]-1H-pyrazol-1-yl}pyridine-4-carboxylic acid]
< 0.1	< 0.1	< 0.1	O=C(O)c1ccnc(-n2nccc2OCc2ccc(Cl)cc2)c1 [Example 53, 2-{5-[(4-chlorobenzyl)oxy]-1H-pyrazol-1-yl}pyridine-4-carboxylic acid]
< 0.1	< 0.1	0.1 to 1	O=C(O)c1ccnc(-n2nccc2OCc2ccc(C(F)(F)F)cc2)c1 [Example 54, 2-(5-{[4-(trifluoromethyl)benzyl]oxy}-1H-pyrazol-1-yl)pyridine-4-carboxylic acid]
< 0.1	< 0.1	< 0.1	O=C(O)c1ccnc(-n2nccc2OCc2cccc(Cl)c2)c1 [Example 58, 2-{5-[(3-chlorobenzyl)oxy]-1H-pyrazol-1-yl}pyridine-4-carboxylic acid]
< 0.1	< 0.1	< 0.1	O=C(O)c1ccnc(-n2nccc2OCc2ccccc2F)c1 [Example 59, 2-{5-[(2-fluorobenzyl)oxy]-1H-pyrazol-1-yl}pyridine-4-carboxylic acid]
< 0.1	< 0.1	0.1 to 1	O=C(O)c1ccnc(-n2nccc2OCc2cccnc2)c1 [Example 60, 2-[5-(pyridin-3-ylmethoxy)-1H-pyrazol-1-yl]pyridine-4-carboxylic acid]
< 0.1	< 0.1	< 0.1	O=C(O)c1ccnc(-n2nccc2OCc2ccncc2)c1 [Example 61, 2-[5-(pyridin-4-ylmethoxy)-1H-pyrazol-1-yl]pyridine-4-carboxylic acid]
< 0.1	< 0.1	0.1 to 1	O=C(O)c1ccnc(-n2nccc2OCC2CCC(F)(F)CC2)c1 [Example 71, 2-{5-[(4,4-difluorocyclohexyl)methoxy]-1H-pyrazol-1-yl}pyridine-4-carboxylic acid]
< 0.1	< 0.1	< 0.1	O=C(O)c1ccnc(-n2nccc2OCc2cccc(O)c2)c1 [Example 73, 2-{5-[(3-hydroxybenzyl)oxy]-1H-pyrazol-1-yl}pyridine-4-carboxylic acid]
< 0.1	< 0.1	< 0.1	O=C(O)c1ccnc(-n2nccc2OCc2ccc(Cl)cc2F)c1 [Example 75, 2-{5-[(4-chloro-2-fluorobenzyl)oxy]-1H-pyrazol-1-yl}pyridine-4-carboxylic acid]
< 0.1	< 0.1	< 0.1	O=C(O)c1ccnc(-n2nccc2OCc2ccc(F)c(Cl)c2)c1 [Example 76, 2-{5-[(3-chloro-4-fluorobenzyl)oxy]-1H-pyrazol-1-yl}pyridine-4-carboxylic acid]
< 0.1	< 0.1	0.1 to 1	O=C(O)c1ccnc(-n2nccc2OCc2ccc(C3CC3)cc2)c1 [Example 77, 2-{5-[(4-cyclopropylbenzyl)oxy]-1H-pyrazol-1-yl}pyridine-4-carboxylic acid]

Molecule	IC50 (Jarid1B) [µM]	IC50 (Jarid1A) [µM]	IC50 (JMJD2C) [µM]
2-{5-[(2-methyl-2H-indazol-5-yl)methoxy]-1H-pyrazol-1-yl}pyridine-4-carboxylic acid [Example 51]	< 0.1	< 0.1	0.1 to 1
